{"source": "patent US6479435B1", "about": "“Diaryl ethers and processes for their preparation and herbicidal and desiccant compositions containing them” (ISK Americas Incorporated, priority 1997, dated 2002)", "format_in_all_cases": "in vivo", "key": {"[1]": {"system": "field corn (Zea mays L., var. Dekalb 535, CORN)", "assay": "Pre-emerge greenhouse test, crop damage rating", "settings": "14 days after application, rating scale 0-100", "in_short": "(§1)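 Visual 0–100 injury rating (100 = all plants dead) taken 14 days after treatment. Rates of 125–1000 g ai/ha in acetone, 187 l/ha, were sprayed onto soil one day post-sowing; pots were surface-watered to incorporate, then bottom-watered.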"}, "[2]": {"system": "upland rice (Oryza sp., var.Tebonnet, RICE)", "assay": "Pre-emerge greenhouse test, crop damage rating", "settings": "14 days after application, rating scale 0-100", "in_short": "as §1"}, "[3]": {"system": "soybean (Glycine max L., var. Pella 86, SOY)", "assay": "Post-emerge greenhouse test, crop damage rating", "settings": "14 days after application", "in_short": "(§2)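 Scores use a 0 (no damage) to 100 (complete kill) scale, taken 14 days after a foliar spray. Acetone solutions with 0.25% v/v non-ionic surfactant were applied by track sprayer at 187 l/ha and 63-1000 g ai/ha to bottom-watered 2-3 leaf plants.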"}, "[4]": {"system": "soybean (Glycine max L., var. Pella 86, SOY)", "assay": "Pre-emerge greenhouse test, crop damage rating", "settings": "14 days after application, rating scale 0-100", "in_short": "as §1"}, "[5]": {"system": "ivyleaf morningglory (Ipomoea hederacea, IPOHE)", "assay": "Post-emerge greenhouse herbicide test, phytotoxicity rating", "settings": "14 days after application", "in_short": "as §2"}, "[6]": {"system": "lambsquarters (Chenopodium album, CHEAL)", "assay": "Post-emerge greenhouse herbicide test, phytotoxicity rating", "settings": "14 days after application", "in_short": "as §2"}, "[7]": {"system": "green foxtail (Setaria viridis, SETVI)", "assay": "Post-emerge greenhouse herbicide test, phytotoxicity rating", "settings": "14 days after application", "in_short": "as §2"}, "[8]": {"system": "barnyardgrass (Echinochloa crusgalli, ECHCG)", "assay": "Post-emerge greenhouse herbicide test, phytotoxicity rating", "settings": "14 days after application", "in_short": "as §2"}, "[9]": {"system": "large crabgrass (Digitaria sanguinalis, DIGSA)", "assay": "Post-emerge greenhouse herbicide test, phytotoxicity rating", "settings": "14 days after application", "in_short": "as §2"}, "[10]": {"system": "sicklepod (Cassia obtusifolia, CASOB)", "assay": "Post-emerge greenhouse herbicide test, phytotoxicity rating", "settings": "14 days after application", "in_short": "as §2"}, "[11]": {"system": "Johnsongrass (Sorghum halepense, SORHA)", "assay": "Post-emerge greenhouse herbicide test, phytotoxicity rating", "settings": "14 days after application", "in_short": "as §2"}, "[12]": {"system": "velvetleaf (Abutilon theophrasti, ABUTH)", "assay": "Post-emerge greenhouse herbicide test, phytotoxicity rating", "settings": "14 days after application", "in_short": "as §2"}, "[13]": {"system": "redroot pigweed (Amaranthus retroflexus, AMARE)", "assay": "Post-emerge greenhouse herbicide test, phytotoxicity rating", "settings": "14 days after application", "in_short": "as §2"}, "[14]": {"system": "field corn (Zea mays L., var. Dekalb 535, CORN)", "assay": "Post-emerge greenhouse test, crop damage rating", "settings": "14 days after application", "in_short": "as §2"}, "[15]": {"system": "upland rice (Oryza sp., var.Tebonnet, RICE)", "assay": "Post-emerge greenhouse test, crop damage rating", "settings": "14 days after application", "in_short": "as §2"}, "[16]": {"system": "common ragweed (Ambrosia artemisiifolia L., AMBEL)", "assay": "Post-emerge greenhouse herbicide test, phytotoxicity rating", "settings": "14 days after application", "in_short": "as §2"}, "[17]": {"system": "common ragweed (Ambrosia artemisiifolia L., AMBEL)", "assay": "Pre-emerge greenhouse herbicide test, phytotoxicity rating", "settings": "14 days after application, rating scale 0-100", "in_short": "as §1"}, "[18]": {"system": "ivyleaf morningglory (Ipomoea hederacea, IPOHE)", "assay": "Pre-emerge greenhouse herbicide test, phytotoxicity rating", "settings": "14 days after application, rating scale 0-100", "in_short": "as §1"}, "[19]": {"system": "lambsquarters (Chenopodium album, CHEAL)", "assay": "Pre-emerge greenhouse herbicide test, phytotoxicity rating", "settings": "14 days after application, rating scale 0-100", "in_short": "as §1"}, "[20]": {"system": "green foxtail (Setaria viridis, SETVI)", "assay": "Pre-emerge greenhouse herbicide test, phytotoxicity rating", "settings": "14 days after application, rating scale 0-100", "in_short": "as §1"}, "[21]": {"system": "barnyardgrass (Echinochloa crusgalli, ECHCG)", "assay": "Pre-emerge greenhouse herbicide test, phytotoxicity rating", "settings": "14 days after application, rating scale 0-100", "in_short": "as §1"}, "[22]": {"system": "large crabgrass (Digitaria sanguinalis, DIGSA)", "assay": "Pre-emerge greenhouse herbicide test, phytotoxicity rating", "settings": "14 days after application, rating scale 0-100", "in_short": "as §1"}, "[23]": {"system": "sicklepod (Cassia obtusifolia, CASOB)", "assay": "Pre-emerge greenhouse herbicide test, phytotoxicity rating", "settings": "14 days after application, rating scale 0-100", "in_short": "as §1"}, "[24]": {"system": "Johnsongrass (Sorghum halepense, SORHA)", "assay": "Pre-emerge greenhouse herbicide test, phytotoxicity rating", "settings": "14 days after application, rating scale 0-100", "in_short": "as §1"}, "[25]": {"system": "velvetleaf (Abutilon theophrasti, ABUTH)", "assay": "Pre-emerge greenhouse herbicide test, phytotoxicity rating", "settings": "14 days after application, rating scale 0-100", "in_short": "as §1"}, "[26]": {"system": "redroot pigweed (Amaranthus retroflexus, AMARE)", "assay": "Pre-emerge greenhouse herbicide test, phytotoxicity rating", "settings": "14 days after application, rating scale 0-100", "in_short": "as §1"}}}
{"smiles": "Nc1ccc(Oc2cc(-n3c(=O)n4n(c3=S)CCCC4)c(F)cc2Cl)cc1", "note": "[Compound 8-9]", "values": [{"measurement": "crop damage rating CORN", "setting": "[1]; 125 g ai/ha", "value": 0}, {"measurement": "crop damage rating CORN", "setting": "[1]; 500 g ai/ha", "value": 0}, {"measurement": "crop damage rating RICE", "setting": "[2]; 125 g ai/ha", "value": 0}, {"measurement": "crop damage rating RICE", "setting": "[2]; 500 g ai/ha", "value": 0}, {"measurement": "SOY crop damage rating (0-100)", "setting": "[3]; 63 g al/ha", "value": 20}, {"measurement": "SOY crop damage rating (0-100)", "setting": "[3]; 500 g al/ha", "value": 70}, {"measurement": "crop damage rating SOY", "setting": "[4]; 125 g ai/ha", "value": 0}, {"measurement": "crop damage rating SOY", "setting": "[4]; 500 g ai/ha", "value": 0}, {"measurement": "IPOHE phytotoxicity rating (0-100)", "setting": "[5]; 63 g al/ha", "value": 40}, {"measurement": "IPOHE phytotoxicity rating (0-100)", "setting": "[5]; 500 g al/ha", "value": 100}, {"measurement": "CHEAL phytotoxicity rating (0-100)", "setting": "[6]; 63 g al/ha", "value": 60}, {"measurement": "CHEAL phytotoxicity rating (0-100)", "setting": "[6]; 500 g al/ha", "value": 95}, {"measurement": "SETVI phytotoxicity rating (0-100)", "setting": "[7]; 63 g al/ha", "value": 0}, {"measurement": "SETVI phytotoxicity rating (0-100)", "setting": "[7]; 500 g al/ha", "value": 30}, {"measurement": "ECHCG phytotoxicity rating (0-100)", "setting": "[8]; 63 g al/ha", "value": 0}, {"measurement": "ECHCG phytotoxicity rating (0-100)", "setting": "[8]; 500 g al/ha", "value": 0}, {"measurement": "DIGSA phytotoxicity rating (0-100)", "setting": "[9]; 63 g al/ha", "value": 0}, {"measurement": "DIGSA phytotoxicity rating (0-100)", "setting": "[9]; 500 g al/ha", "value": 10}, {"measurement": "CASOB phytotoxicity rating (0-100)", "setting": "[10]; 63 g al/ha", "value": 0}, {"measurement": "CASOB phytotoxicity rating (0-100)", "setting": "[10]; 500 g al/ha", "value": 100}, {"measurement": "SORHA phytotoxicity rating (0-100)", "setting": "[11]; 63 g al/ha", "value": 0}, {"measurement": "SORHA phytotoxicity rating (0-100)", "setting": "[11]; 500 g al/ha", "value": 30}, {"measurement": "ABUTH phytotoxicity rating (0-100)", "setting": "[12]; 63 g al/ha", "value": 50}, {"measurement": "ABUTH phytotoxicity rating (0-100)", "setting": "[12]; 500 g al/ha", "value": 100}, {"measurement": "AMARE phytotoxicity rating (0-100)", "setting": "[13]; 63 g al/ha", "value": 90}, {"measurement": "AMARE phytotoxicity rating (0-100)", "setting": "[13]; 500 g al/ha", "value": 100}, {"measurement": "CORN crop damage rating (0-100)", "setting": "[14]; 63 g al/ha", "value": 0}, {"measurement": "CORN crop damage rating (0-100)", "setting": "[14]; 500 g al/ha", "value": 10}, {"measurement": "RICE crop damage rating (0-100)", "setting": "[15]; 63 g al/ha", "value": 0}, {"measurement": "RICE crop damage rating (0-100)", "setting": "[15]; 500 g al/ha", "value": 0}, {"measurement": "AMBEL phytotoxicity rating (0-100)", "setting": "[16]; 63 g al/ha", "value": 30}, {"measurement": "AMBEL phytotoxicity rating (0-100)", "setting": "[16]; 500 g al/ha", "value": 80}, {"measurement": "phytotoxicity rating AMBEL", "setting": "[17]; 125 g ai/ha", "value": 30}, {"measurement": "phytotoxicity rating AMBEL", "setting": "[17]; 500 g ai/ha", "value": 30}, {"measurement": "phytotoxicity rating IPOHE", "setting": "[18]; 125 g ai/ha", "value": 0}, {"measurement": "phytotoxicity rating IPOHE", "setting": "[18]; 500 g ai/ha", "value": 10}, {"measurement": "phytotoxicity rating CHEAL", "setting": "[19]; 125 g ai/ha", "value": 70}, {"measurement": "phytotoxicity rating CHEAL", "setting": "[19]; 500 g ai/ha", "value": 100}, {"measurement": "phytotoxicity rating SETVI", "setting": "[20]; 125 g ai/ha", "value": 0}, {"measurement": "phytotoxicity rating SETVI", "setting": "[20]; 500 g ai/ha", "value": 30}, {"measurement": "phytotoxicity rating ECHCG", "setting": "[21]; 125 g ai/ha", "value": 0}, {"measurement": "phytotoxicity rating ECHCG", "setting": "[21]; 500 g ai/ha", "value": 0}, {"measurement": "phytotoxicity rating DIGSA", "setting": "[22]; 125 g ai/ha", "value": 0}, {"measurement": "phytotoxicity rating DIGSA", "setting": "[22]; 500 g ai/ha", "value": 0}, {"measurement": "phytotoxicity rating CASOB", "setting": "[23]; 125 g ai/ha", "value": 0}, {"measurement": "phytotoxicity rating CASOB", "setting": "[23]; 500 g ai/ha", "value": 40}, {"measurement": "phytotoxicity rating SORHA", "setting": "[24]; 125 g ai/ha", "value": 0}, {"measurement": "phytotoxicity rating SORHA", "setting": "[24]; 500 g ai/ha", "value": 0}, {"measurement": "phytotoxicity rating ABUTH", "setting": "[25]; 125 g ai/ha", "value": 60}, {"measurement": "phytotoxicity rating ABUTH", "setting": "[25]; 500 g ai/ha", "value": 100}, {"measurement": "phytotoxicity rating AMARE", "setting": "[26]; 125 g ai/ha", "value": 100}, {"measurement": "phytotoxicity rating AMARE", "setting": "[26]; 500 g ai/ha", "value": 95}]}
